In patent US20180353521A1, “METHOD FOR TREATING STROKE OR REDUCING NERVE INJURY” (priority 2017, published 2018):
“Also recorded” adds a separate entry of the source.

Assays:
[1] = test system: Middle Cerebral Artery Occlusion, MCAO/Reperfusion Model (ischemic stroke); test: Analysis of brain infarct region (TTC staining) after MCAO; type: in vivo, male SD rats; settings: 50 mg/kg given 10 minutes before MCAO; for reduction of brain infarct volume vs vehicle control group: Student's T test; for reduction of infarct size at positions from the front end of the brain: brain taken 24 hours after MCAO, 2 mm slices, FIG. 4B
[2] = test system: Middle Cerebral Artery Occlusion, MCAO/Reperfusion Model (ischemic stroke); test: Neurobehavioral assessment after MCAO surgery; settings: 50 mg/kg given 10 minutes before MCAO, 24 hours after MCAO surgery, Student's T test vs Vehicle, FIG. 3
Text: (§1) Test animals (250-350 g of male SD rats in this example) were anesthetized with 2% isoflurane in N2O/O2 (70%/30%). The right common carotid artery (right CCA), external carotid artery (ECA), and internal carotid artery (ICA) were isolated.
(§2) Cutting along the midline of the scalp, the nylon monofilament (the front of the nylon monofilament was covered with polysiloxane) was inserted through the external carotid artery along the internal carotid artery and extending to circle of Willis of the brain, resulting in obstruction of the middle cerebral artery. After an hour of ischemia, the nylon monofilament was removed and the brain's blood was reperfused.
(§3) The above-mentioned prevention model experiment further comprised a blank control group (sham) which were undergone no MCAO surgery and administered without the compound; and a vehicle control group (Vehicle) which was undergone MCAO surgery and administered with water in place of the compound.
Neurobehavioral assessment in one embodiment of the present invention was performed on the rats at 0.5, 1.5 and 24 hours after MCAO surgery on each group of rats, and scored according to the following states.
Score 0: lifting the rat by its tail to about 20 to 30 cm above the ground and observing the state of stretching the forelimbs, at which state the forelimb of the rat could stretch towards the ground with balance and no occurrences of other nerve injuries is shown in FIG. 2(A), representing the normal rat.
Score 1: lifting the rat by its tail to about 20 to 30 cm above the ground and observing the state of stretching the forelimb.
Score 2: the rat was placed on the ground and a lateral thrust was applied. The resistance of the rat to the thrust ipsilateral to the damaged area of the brain was decreased.
Score 3: the rat continued to go around in circles towards the contralateral side of damaged area of the brain and incapable of going straight when it was set free to exercise.
The Student's T test was adopted to determine whether there was difference between the groups administered with each compound and the Vehicle group. If the p value was less than or equal to 0.05, it represented significant difference.

[3] = Weight analysis in MCAO/reperfusion model; settings: 24 hours after MCAO surgery, 50 mg/kg; for retardation in body weight decrease vs vehicle control group: FIG. 5; for body weight, AVG, 24 hr: average value
Text: as §1, §2, §3

## COc1cc(C)c(OC)c2c1OCO2 [AR-04-15S, 4,7-Dimethoxy-5-methyl-1,3-benzodioxole]
[1]; 24 hours after MCAO, FIG. 4C, listed as AR-04-155
  reduction of brain infarct volume vs vehicle control group: significant effects in reducing the infarct; also recorded: statistically significant effect in reducing the brain infarct volume
[1]
  reduction of infarct size at positions from the front end of the brain: significant effect in reducing the infarct size at 7 mm, 9 mm and 11 mm
[2]; listed as AR-04-155
  nerve injury (neurobehavioral assessment score) vs Vehicle: recovery tendency; also recorded: significant effects in reducing nerve injury
[3]
  retardation in body weight decrease vs vehicle control group: significant retardation in body weight decrease
  body weight, AVG, 24 hr: 243.2

## C=C(CC[C@@H](C(=O)O)[C@H]1CC[C@@]2(C)C3=CC[C@H]4C(C)(C)[C@@H](O)CC[C@]4(C)C3=CC[C@]12C)C(C)C [AR-04-41S, dehydroeburicoic acid]
[1]; 24 hours after MCAO, FIG. 4C
  total infarct volume (%) of the brain: less than 10%
  reduction of brain infarct volume vs vehicle control group: statistically significant effect in reducing the brain infarct volume
[1]; 24 hours after MCAO, FIG. 4C, listed as AR-04-415
  reduction of brain infarct volume vs vehicle control group: best effect on reducing the infarct volume
[1]
  reduction of infarct size at positions from the front end of the brain: significant effect in reducing the infarct size at 3 mm, 7 mm, 9 mm, 11 mm, and 13 mm; also recorded: better efficacy at 7 mm
[2]
  nerve injury (neurobehavioral assessment score) vs Vehicle: statistically significant in efficacy; also recorded: statistically significant effect in reducing nerve injury
[2]; listed as AR-04-415
  nerve injury (neurobehavioral assessment score) vs Vehicle: recovery tendency
[3]
  body weight, AVG, 24 hr: 266.5

## C=C(CC[C@@H](C(=O)O)[C@H]1C[C@H](O)[C@@]2(C)C3=CC[C@H]4C(C)(C)[C@@H](O)CC[C@]4(C)C3=CC[C@]12C)C(C)C [AR-04-1822S, dehydrosulphurenic acid (dehydrosulfurenic acid)]
[1]; 24 hours after MCAO, FIG. 4C
  reduction of brain infarct volume vs vehicle control group: significant effects in reducing the infarct
[1]; 24 hours after MCAO, FIG. 4C, listed as AR-04-18225
  reduction of brain infarct volume vs vehicle control group: statistically significant effect in reducing the brain infarct volume
[1]; listed as AR-04-18225
  reduction of infarct size at positions from the front end of the brain: significant effect in reducing the infarct size at 3 mm, 5 mm, 7 mm, 9 mm, 11 mm, and 13 mm; also recorded: significantly better effect in reducing the infarct size at 7 mm and 9 mm
[2]
  nerve injury (neurobehavioral assessment score) vs Vehicle: statistically significant in efficacy
[2]; listed as AR-04-18225
  nerve injury (neurobehavioral assessment score) vs Vehicle: recovery tendency; also recorded: statistically significant effect in reducing nerve injury
[3]
  retardation in body weight decrease vs vehicle control group: significant retardation in body weight decrease
  body weight, AVG, 24 hr: 270.0
